According to patent US20230405134A1, “NOVEL PROTAC CHIMERIC COMPOUND, AND PHARMACEUTICAL COMPOSITION COMPRISING SAME FOR PREVENTING, AMELIORATING, OR TREATING DISEASES THROUGH TARGET PROTEIN DEGRADATION” (POSTECH RESEARCH AND BUSINESS DEVELOPMENT FOUNDATION, priority 2020, published 2023):
Where a SMILES comes first, the peptide text is derived from it. Bridges are numbered along the chain shown (N, C = ends). [ ]: non-standard residue; d: D form. Cha = N[C@@H](CC1CCCCC1)C(=O)O; S5 = C=CCCC[C@](C)(N)C(=O)O

What was measured:
SRC-1/ND1-YL2/UBR box = target: T1, SRC-1/ND1-YL2/UBR box (UniProt P19812+Q15788); test: SEC-MALS ternary complex formation; type: binding; details: SRC-1 alone 20 kDa, UBR box alone 12 kDa
T1 construct: PAS-B domain of human SRC-1 (residues 257-385) tagged with His6; UBR box (residues 113-194) in the UBR1 E3 ubiquitin ligase of S. cerevisiae; His6 (cleaved yes); made in house; host or cells: E. coli BL21 (DE3) pLysS (SRC-1 PAS-B)
T1 sequence (Q15788 257-385): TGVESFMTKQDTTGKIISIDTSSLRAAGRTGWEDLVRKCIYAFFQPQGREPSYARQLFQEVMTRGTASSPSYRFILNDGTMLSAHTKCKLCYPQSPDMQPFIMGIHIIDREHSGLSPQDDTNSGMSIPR
T1 sequence (P19812 113-194): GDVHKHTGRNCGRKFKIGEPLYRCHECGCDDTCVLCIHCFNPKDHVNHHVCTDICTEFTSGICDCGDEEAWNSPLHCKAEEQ
Description: An expression plasmid of the PAS-B domain of human SRC-1 (residues 257-385) tagged with His6 was provided by Professor John. A. Robinson. (ChemBioChem 2008, 9, 1318-1322). The plasmid was transformed into BL21 (DE3) pLysS cells, and the protein was cultured in Luria-Bertani broth medium and induced with 0.5 mM IPTG at 18° C. for 16 hours. Cell disruption was performed by ultrasonic treatment in a buffer (50 mM Tris-HCl pH 8.0, 200 mM NaCl and 1 mM TCEP), and insoluble materials were removed by centrifugation. HisTrap™ column (GE Healthcare, 17-5255-01) chromatography was performed on the buffer and 500 mM of imidazole was applied for elution. In order to remove the His6-tag, TEV protease was used and the cleaved samples were loaded in HisTrap™ as described above. The SRC-1 was further purified by size exclusion chromatography (HiLoad™ 16/600 Superdex 75 pg) in a final buffer of 20 mM Tris-HCl pH 7.5, 150 mM NaCl and 1 mM TCEP. […]
The next step was to confirm whether ND1-YL2 could indeed form a ternary complex. […] Light scattering and differential refractive index data were collected and analyzed using ASTRA®V software (Wyatt Technology) (FIG. 12A). The individual molecules SRC-1 and UBR box had molecular masses of 20 and 12 kDa, respectively, and were detected to be 40 kDa in the presence of ND1-YL2, which is a result showing that a ternary complex was formed (FIG. 12A).

SRC-3 = target: T2, SRC-3 (Homo sapiens, UniProt Q9Y6Q9); test: SRC-3 expression level in MDA-MB-231 cells by Western blot; type: cell-based; details: 20 μM
T2 construct: endogenous in cells; host or cells: MDA-MB-231
T2 sequence (Q9Y6Q9 whole entry): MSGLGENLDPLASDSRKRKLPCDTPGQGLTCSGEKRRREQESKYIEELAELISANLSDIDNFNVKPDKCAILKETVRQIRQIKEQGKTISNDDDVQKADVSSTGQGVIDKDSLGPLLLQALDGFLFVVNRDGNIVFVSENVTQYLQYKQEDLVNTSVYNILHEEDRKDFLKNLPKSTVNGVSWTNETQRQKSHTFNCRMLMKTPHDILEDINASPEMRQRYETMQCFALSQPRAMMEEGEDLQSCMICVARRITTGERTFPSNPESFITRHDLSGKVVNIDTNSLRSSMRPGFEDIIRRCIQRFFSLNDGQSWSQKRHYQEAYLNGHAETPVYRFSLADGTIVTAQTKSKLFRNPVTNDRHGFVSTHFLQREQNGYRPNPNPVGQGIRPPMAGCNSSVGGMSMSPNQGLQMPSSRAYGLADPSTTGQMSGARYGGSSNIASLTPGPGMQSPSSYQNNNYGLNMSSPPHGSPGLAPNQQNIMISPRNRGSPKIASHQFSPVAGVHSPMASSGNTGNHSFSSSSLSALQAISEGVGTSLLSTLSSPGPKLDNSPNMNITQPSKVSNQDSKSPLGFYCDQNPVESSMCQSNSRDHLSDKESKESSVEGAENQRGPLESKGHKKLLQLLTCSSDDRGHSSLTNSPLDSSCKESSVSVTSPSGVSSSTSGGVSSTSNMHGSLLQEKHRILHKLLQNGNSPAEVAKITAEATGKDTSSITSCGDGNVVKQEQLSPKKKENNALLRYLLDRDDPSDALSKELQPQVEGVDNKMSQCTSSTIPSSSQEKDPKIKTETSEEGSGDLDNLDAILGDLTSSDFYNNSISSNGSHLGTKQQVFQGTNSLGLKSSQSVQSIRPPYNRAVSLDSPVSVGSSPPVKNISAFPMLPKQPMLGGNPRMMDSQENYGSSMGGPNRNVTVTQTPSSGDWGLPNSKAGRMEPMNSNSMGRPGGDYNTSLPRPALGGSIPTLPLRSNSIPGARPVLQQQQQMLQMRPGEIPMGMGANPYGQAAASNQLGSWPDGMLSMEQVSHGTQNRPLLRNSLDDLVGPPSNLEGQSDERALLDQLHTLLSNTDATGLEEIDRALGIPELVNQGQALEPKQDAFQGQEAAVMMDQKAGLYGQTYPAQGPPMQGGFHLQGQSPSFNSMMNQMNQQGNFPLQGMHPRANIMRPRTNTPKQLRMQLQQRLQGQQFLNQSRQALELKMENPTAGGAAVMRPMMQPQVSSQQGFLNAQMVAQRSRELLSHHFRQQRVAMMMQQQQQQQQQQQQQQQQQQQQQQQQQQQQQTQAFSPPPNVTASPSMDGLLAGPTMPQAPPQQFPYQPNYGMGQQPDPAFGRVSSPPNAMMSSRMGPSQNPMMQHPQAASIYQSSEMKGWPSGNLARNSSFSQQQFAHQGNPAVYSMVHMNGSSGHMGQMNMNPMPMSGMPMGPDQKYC
Description: It was confirmed whether ND1-YL2 could selectively target and degrade SRC-1 over other SRC family members. Considering the structural similarity between SRC members, it can be predicted that ND1-YL2 will be able to bind to and degrade other members of the SRC family, such as SRC-3. […] To test this, TNBC MDA-MB-231 cells were treated with ND1-YL2 and the amounts of SRC-3 and SRC-1 were confirmed at the cellular level by Western blotting (FIG. 17).

MDA-MB-231 cells = test: Matrigel invasion assay; type: cell-based, human; details: 24 hours; ND1-YL2 various concentrations, YL2 and RLAA 20 μM
Description: The inhibition of cell migration may be due to the inhibitory effect of ND1-YL2 on cell growth. In order to exclude this possibility, the invasive ability of cells treated with ND1-YL2 was confirmed. A Corning Matrigel insert (Corning) was placed in a 24-well plate. After hydrating the Matrigel insert with an FBS-free DMEM medium for 2 hours in a CO2 incubator, MDA-MB-231 cells were cultured in the Matrigel insert (4×10^4 cells/insert) with 125 μL of Opti-MEM medium. Another 125 μl of compound containing Opti-MEM medium was added to the insert. The lower chamber was filled with 500 μL of DMEM medium containing 10% FBS. The Matrigel chamber was cultured for 24 hours under the conditions of 37° C. and 5% CO2. The cell culture media of the upper and lower chambers were removed and washed three times with cold DPBS. Non-invasive cells were then removed with a cotton swab. The bottom of the chamber was fixed with 4% formaldehyde for 10 minutes at room temperature, and stained with Hoechst 33342 (5 μg/mL) for 5 minutes in a CO2 incubator. After washed with DPBS, images of infiltrated cells were obtained by a fluorescence microscope. The percentage of the invasive cells was calculated using the product manual. MDA-MB-231 cells were treated with various concentrations of ND1-YL2, N-degron (20 μM) or YL2 (20 μM). After 24 hours, images of the invaded cells were obtained by a fluorescence microscope, and the number of invaded cells was quantified through the images. […] The inhibitory activity of ND1-YL2 on cell migration and invasion is in good agreement with previous SRC-1 knockdown experiments.

SRC-1 = SRC-1 (Homo sapiens, UniProt Q15788); test: SRC-1 expression level in MDA-MB-231 cells by Western blot; type: cell-based; parameters: endogenous in cells; host or cells: MDA-MB-231
Chain of SRC-1 (Q15788 whole entry): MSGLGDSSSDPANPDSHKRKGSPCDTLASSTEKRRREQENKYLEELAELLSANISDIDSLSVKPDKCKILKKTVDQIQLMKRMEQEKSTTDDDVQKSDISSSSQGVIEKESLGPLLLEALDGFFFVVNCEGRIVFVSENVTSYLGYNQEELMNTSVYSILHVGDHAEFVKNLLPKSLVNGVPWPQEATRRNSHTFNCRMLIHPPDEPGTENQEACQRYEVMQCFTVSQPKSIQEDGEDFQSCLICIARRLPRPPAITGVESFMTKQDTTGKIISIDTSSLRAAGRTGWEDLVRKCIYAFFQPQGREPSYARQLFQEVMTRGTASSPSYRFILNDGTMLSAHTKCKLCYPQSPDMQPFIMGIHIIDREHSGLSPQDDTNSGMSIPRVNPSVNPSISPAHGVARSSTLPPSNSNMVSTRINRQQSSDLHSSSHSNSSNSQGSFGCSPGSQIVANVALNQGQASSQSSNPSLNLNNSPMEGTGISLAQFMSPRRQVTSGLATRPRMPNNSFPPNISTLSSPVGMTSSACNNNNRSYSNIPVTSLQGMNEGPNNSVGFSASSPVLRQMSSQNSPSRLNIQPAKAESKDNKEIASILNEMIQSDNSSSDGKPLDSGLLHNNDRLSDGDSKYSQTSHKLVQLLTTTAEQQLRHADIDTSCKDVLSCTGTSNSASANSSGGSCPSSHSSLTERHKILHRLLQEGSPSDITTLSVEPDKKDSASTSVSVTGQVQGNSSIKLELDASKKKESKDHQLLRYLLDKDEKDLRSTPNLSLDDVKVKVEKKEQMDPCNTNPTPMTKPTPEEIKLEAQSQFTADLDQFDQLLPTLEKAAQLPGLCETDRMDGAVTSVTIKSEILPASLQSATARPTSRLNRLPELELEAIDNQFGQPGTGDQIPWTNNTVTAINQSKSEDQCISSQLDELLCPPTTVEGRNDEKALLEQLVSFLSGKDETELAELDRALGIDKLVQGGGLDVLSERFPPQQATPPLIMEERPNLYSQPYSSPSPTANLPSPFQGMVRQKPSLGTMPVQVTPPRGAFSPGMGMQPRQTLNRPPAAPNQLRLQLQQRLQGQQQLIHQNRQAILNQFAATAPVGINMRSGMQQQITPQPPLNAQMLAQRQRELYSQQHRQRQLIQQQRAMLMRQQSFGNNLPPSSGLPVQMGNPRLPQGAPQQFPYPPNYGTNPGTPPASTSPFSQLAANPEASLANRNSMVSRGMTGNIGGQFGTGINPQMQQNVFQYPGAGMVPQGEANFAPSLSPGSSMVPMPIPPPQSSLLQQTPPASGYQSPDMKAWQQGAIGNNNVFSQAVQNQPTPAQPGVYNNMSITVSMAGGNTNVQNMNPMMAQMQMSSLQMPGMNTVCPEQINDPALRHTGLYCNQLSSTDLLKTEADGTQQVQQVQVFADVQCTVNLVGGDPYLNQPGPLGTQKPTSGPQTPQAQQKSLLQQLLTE

CC(C)C[C@H](NC(=O)[C@H](C)NC(=O)[C@H](C)NC(=O)[C@H](C)NC(=O)[C@H](C)NC(=O)[C@H](CC(C)C)NC(=O)[C@@H](N)CCCNC(=N)N)C(=O)N[C@@H](CC(C)C)C(=O)N1CCC[C@H]1C(=O)N1CCC[C@H]1C(=O)N[C@H](C(=O)N[C@@H](CCC(=O)O)C(=O)N[C@@H](CCC(N)=O)C(=O)N[C@@H](CC(=O)O)C(=O)N[C@@H](CC(C)C)C(=O)N[C@@]1(C)CCC/C=C\CCC[C@@](C)(C(=O)N[C@@H](Cc2ccc(O)cc2)C(N)=O)NC(=O)[C@H](CC2CCCCC2)NC(=O)[C@H](CC(C)C)NC(=O)[C@H](CCCCN)NC1=O)[C@@H](C)O [ND1-YL2] (H-RLAAAALLPPTEQDL[S5]KL[Cha][S5]Y-NH2; staple (Z) 16-20)
Molecular mass detected for SRC-1 and UBR box in the presence of compound (SRC-1/ND1-YL2/UBR box): 40 kDa
Degradation effect on SRC-3 (SRC-3): no degradation effect was observed
Effect on cell invasion (MDA-MB-231 cells): cell invasion decreased as the treatment concentration of ND1-YL2 increased
Selective degradation of SRC-1 over SRC-3 (SRC-1; 20 μM): selectively degraded only SRC-1
Time after treatment at which SRC-1 degradation was evident (SRC-1; 20 μM): 8 h
Time for which SRC-1 degradation was maintained without detectable recovery (SRC-1; 20 μM): 24 h
SRC-1 degradation, single agents compared (SRC-1; 20 μM, 12 hours): degradation of SRC-1 appeared only in ND1-YL2
Time to restoration of SRC-1 expression to the original level after removal of compound (SRC-1; 20 μM, after washing): ≤ 12 h
SRC-1 degradation (SRC-1; various concentrations, Western blot): strongest activity among the synthesized and treated compounds
DC50 (SRC-1; various concentrations, Western blot, read-out: DC50 for reduction of SRC-1 expression level): ~10 µM
SRC-1 degradation when treated together with MG-132 (SRC-1; with proteasome inhibitor MG-132 (5 μM), 12 hours): did not show the effect of degrading SRC-1
